Assay results taken from US7348363B2, “Method of controlling zoological and aquatic plant growth” (priority 2000, dated 2008).

What was measured:
[1] = system: Neochloris; test: Phytoplankton toxicity, Neochloris; assay type: cell-based
Description: (§1) Each 600 ml glass beaker containing 400 ml dinoflagellate culture was allowed to grow under continuous fluorescent light following the exposure treatments. At daily intervals, samples were taken for cell counting and microscopical examination, extraction of chlorophyll pigments with acetone and for direct in-vivo chlorophyll fluorescence determination.
(§2) End-points for quinone toxicity include cell motility, inhibition of cell division, inhibition of chlorophyll synthesis and chloroplate bleaching.
(§3) Assays for other species of phytoplankton including Chlorella sp. and Isochrysis galbana followed the above outlined procedures.

[2] = system: Zebra mussel larvae; test: Zebra mussel larvae bioassay; assay type: in vivo, Dreissena polymorpha
Description: Zebra mussel broodstock were maintained in natural well water with calcium and magnesium adjusted to a hardness level equivalent to approximately 25 mg/l hardness.
(§4) At 20° C., larvae remain in the free-swimming state for 30-40 days prior to settlement. Bioassays using early larval stages of this species are variants on standard oyster embryo bioassays. Assays are conducted at the embryo, trochophore and D-hinge stage.
The assays examined the toxicity of various quinones to the earliest life history stages, namely embryo to trochophore stage (2-17 hours); trochophore stage (2-17 hours); trochophore to D-hinge stage (17-48 hours); and embryo to D-hinge stage (2-48 hours).
Approximately 25 adults from broodstock (held at 10-12° C.) were cleaned of debris and transferred to 1500 ml glass beakers containing approximately 800 ml of culture water. Water temperature was rapidly raised to 30-32° C. by the addition of warm water. Mussels treated this way usually spawn within 30 minutes. If no spawning occurred within this time, a slurry made from ripe gonads homogenized in culture water is added.
A successful spawn yielded >50,000 eggs/female. To check for successful fertilization, zygotes were transferred to a Sedgewick-Rafter cell for counting and examination under a binocular microscope. Fertilized eggs were seen to be actively dividing and reached the 8-cell stage between 2-3 hours following fertilization. A better than 70% fertilization rate is considered indicative of viable experimental material.
Assays were conducted on at least 500 embryos/larvae in each of 4 replicates. A range of 5 test concentrations (in the ppm range) plus controls were used. A density of 10 embryos per ml were used for embryo assays, and for D-hinge larvae 2-larvae/ml were used. The tests were static non-renewal. Any assay lasting 24 hours or longer received food (cultured Neochloris @5×10^4 cells ml-1) at 24 hour intervals.
Following counting and adjustment of densities, embryo assays were started as early as 2 hours following fertilization by inoculating a known number of embryos into the test media. Late stages were held in culture water until inoculation. Survivors were counted using Sedgewick-Rafter cells, with adjustments for control mortality using Abbott's formula. Probit and Dunnett's test are used to obtain the LD50, Lowest Observed Effect Concentration (LOEC) and No Observed Effect Concentration (NOEC) (Toxcalc 5.0).

[3] = system: E. affinis; test: Copepod assay (Eurytemora affinis); assay type: in vivo
Description: Cultures of Eurytemora affinis were continuously maintained in 15 seawater in a 8/16 hours light/dark regime fed every 48 hours on Isochrysis galbana. Toxicity bioassays are conducted on early instar naupliar larvae (chronic mortality/fecundity assay) or adults (acute LC50 assay).
Larvae were collected as follows. Cultures were filtered with a 200 m Nitex filter to separate the adults from earlier stages. Adults were then allowed to spawn for 48-72 hours in order to produce stage 1-3 naupliar larvae to be used for the assay. Assays were conducted on batches of 10 larvae per treatment (in triplicate). At 20° C., assays were continued for 12 days (shorter at higher temperatures). Endpoints were the percentage of F0 generation (present as adults) and total numbers of F1 generation (present as eggs or naupliar larvae). LC50 assays on adult copepods were conducted for 24 or 48 hours with percentage mortality as the end-point. All assays were conducted at 15 salinity on a 8 hour/16 hour light/dark regime.

[4] = system: Fish eggs; assay type: in vivo
[5] = system: Minnow larvae; test: Fathead minnow acute assay (fish assay); assay type: in vivo, Pimephales promelas
Description: Fathead minnows (Pimephales promelas) from in-house laboratory cultures were used for these tests. Animals were cultured in natural well water with hardness adjusted to >50 ppm (CaCO3) equivalents. Fish were spawned in a 20 gal spawning tank containing PVC tubing as refuges. Newly hatched larvae were transferred to a holding tank at densities of 50-100/l until use. Brine shrimp nauplii (Artemia) were used as food.
The tests were static renewal. The test durations were 48 hours and 96 hours. The temperature was 20° C.±1° C. Light quality was ambient laboratory illumination. Light intensity was 10-20 E/m^2/sec (50-100 ft-c). The photoperiod was 16 hours of light and 8 hours of dark. The test container was 400 ml. Renewal of test solutions occurred at 48 hours. The age of test organisms was 1-14 days, with a 24 hour age range. There were 10 organisms per container. There were 3 replicates per concentration of individual quinones in the ppm range. There are 5 test concentrations plus controls (initial range-finding tests performed on logarithmic series). All tests were conducted within 5 hours of dissolving the test compound. Animals were fed Artemia nauplii prior to the test and 2 hours prior to the 48 hour test solution renewal. […]
The test objectives are to determine LC50, LOEC and NOEC. […] Data are analyzed using Toxcalc 5.0.

[6] = system: T. isochrysis galbana; test: Phytoplankton assay, Isochrysis galbana; assay type: cell-based
Description: The dinoflagellate prorocentrum minimum was cultured at the Chesapeake Biological Laboratory culture facility from in-house stocks grown up as a 1 liter culture in sterilized 16 ppt salinity filtered water fortified with f/2 nutrient media. The culture was diluted to 5 liters with filtered estuarine water 16 ppt salinity prior to the experiments. The approximate starting cell density was 2×10^6 cells per ml.
as §1
100 ml of each dinoflagellate culture treatment in triplicate were filtered through a 25 mm GFF filter under gentle vacuum. The filters were folded and placed in polypropylene centrifuge tubes and exactly 4 ml of HPLC grade acetone added. The samples were sonicated with a probe (Virsonic 50) for approximately 2 minutes to disrupt cells after which they are allowed to extract at 4° C. overnight in a refrigerator. After centrifuging for 5 minutes, the supernatant was transferred to a quartz fluorometer cell and the fluorescence recorded using a Hitachi F4500 scanning fluorescence detector. Excitation was fixed at 436 nm with a 10 nm slit and the emission is recorded at 660 nm with a 10 nm slit. The photomultiplier is operated at 700 V. Authentic chlorophyll a and b (Sigman Chemicals) were dissolved in HPLC grade acetone to calibrate the spectrofluorometer. Three point calibrations were performed in triplicate on a daily basis and relative fluorescence response converted into units of ug/l.
In-vivo fluorimetry with the Hitachi F4500 involves suspending the algal cells and transferring an aliquot to a disposable polycarbonate cuvette and recording the emission spectra from 600-720 nm with excitation fixed at 436 nm with a 10 nm slit width.
Direct cell counts were made with a compound binocular microscope and a hemacytometer counting triplicate samples in 80 squares.
as §2, §3

[7] = system: Artemia salina; test: Artemia salina toxicity; assay type: in vivo
Description: (§5) The effectiveness and toxicity levels of the compounds were evaluated using active plant and animal species. The various compounds were added to the water at controlled rates and amounts.

[8] = system: Oyster larvae; test: Oyster larvae toxicity; assay type: in vivo
Description: as §5, §4

[9] = system: Banana snails (Bulimulis alternata); test: Banana snail bioassay on treated lettuce leaves; assay type: in vivo; conditions: for Avoidance of treated leaves: lettuce leaves sprayed with 5, 10 and 20 mg/l aqueous solution
Description: Banana snails (Bulimulis alternata) were obtained from a commercial supplier and were fed lettuce leaves until the start of the bioassay.
Ten snails were placed in covered 1 liter glass beakers, on approximately 50 cm^2 lettuce leaves which had been sprayed with a fine mist of an aqueous solution of 2,3-dimethoxy-5-methyl-1,4-benzoquinone at three concentrations: 5, 10 and 20 mg/l. The treated leaves were allowed to dry before exposure to the snails. 10 snails were placed on approximately 50 cm^2 of untreated lettuce leaf as a control. Treatments and controls were maintained at approximately 20° C. in the dark.
Others climbed up the walls of the beakers away from the leaves. […] In contrast, the control group of snails consumed more than 10% of the leaf surface area after 24 hours and continued to feed and had consumed about 20% of the leaf after 48 hours.

| SMILES | Toxicity Data: time to toxic effect at 5 ppm [3] | Toxicity Data: Toxic at (concentration) [6] | Toxicity Data: Toxic at (concentration) [7] | other results |
| --- | --- | --- | --- | --- |
| CC1=CC(=O)c2c(O)cccc2C1=O [compound 1, 2-methyl-5-hydroxy-1,4-napthoquinone] | 5 ppm < 10 min | Toxic at 50 ppb | Toxic at 5 ppm | Toxicity Data: Toxic at (concentration) [1]: Toxic at 500 ppm; Toxicity Data: Toxic at (concentration) ([2]; Zebra larvae): Toxic at 200 ppb; Toxicity Data: Kills & hatch prevention @ (concentration) [4]: prevention @ 1 ppm; Toxicity Data: Toxic at (concentration) [5]: Toxic at 1 ppm |
| CC1=CC(=O)c2ccccc2C1=O [compound 2, 2-methyl-1,4-naphthalenedione (Vitamin K3)] | 5 ppm < 15 min | Toxic at 500 ppb | Toxic at 5 ppm | Toxicity Data: Toxic at (concentration) ([2]; Zebra mussel larvae): Toxic at 500 ppm; Toxicity Data: Kills & hatch prevention @ (concentration) [4]: prevention @ 1 ppm; Toxicity Data: toxic concentration [8]: 1 ppm |
| CC1(S(=O)(=O)[O-])CC(=O)c2ccccc2C1=O.[Na+] (stereo not shown) [compound 3, 2-methyl-2-sodium metabisulfite-1,4-naphthalenedione] | 5 ppm < 15 min | Toxic at 500 ppb | Toxic at 5 ppm | Toxicity Data: Toxic at (concentration) ([2]; Zebra mussel larvae): Toxic at 1 ppm; Toxicity Data: Kills & hatch prevention @ (concentration) [4]: prevention @ 1 ppm; Toxicity Data: toxic concentration [8]: 500 ppb |
| O=C1c2ccccc2Cc2ccccc21 [compound 4, Anthrone] | – | Toxic at 2 ppm | – | – |
| O=C1c2ccccc2C(=O)c2c1ccc(O)c2O [compound 5, 1,2-dihydroxyanthraquinone] | – | Toxic at 1 ppm | Toxic at 5 ppm | Toxicity Data: Toxic at (concentration) [3]: Toxic at 1 ppm |
| Cc1cc(O)c2c(c1)C(=O)c1cccc(O)c1C2=O [compound 6, 3-methyl-1,8-dihydroxyanthraquinone] | – | Toxic at 1 ppm | – | Toxicity Data: Toxic at (concentration) ([2]; Zebra mussel larvae): Toxic at 1 ppm |
| O=C(O)c1ccc2c(c1)C(=O)c1ccccc1C2=O [compound 7, anthraquinone-2-carboxylic acid] | 5 ppm < 5 hours | Toxic at 1 ppm | – | – |
| O=C1c2ccccc2C(=O)c2c(Cl)cccc21 [compound 8, 1-chloroanthraquinone] | 5 ppm < 5 hours | Toxic at 500 ppb | – | Toxicity Data: Toxic at (concentration) [1]: Toxic at 500 ppb |
| Cc1ccc2c(c1)C(=O)c1ccccc1C2=O [compound 9, 2-methyl-anthraquinone] | 5 ppm < 45 min | Toxic at 500 ppb | Toxic at 5 ppm | Toxicity Data: Toxic at (concentration) [1]: Toxic 1 ppm; Toxicity Data: Toxic at (concentration) ([2]; Zebra mussel larvae): Toxic at 200 ppm |
| O=C1C=CC(=O)c2ccccc21 [compound 10, 1,4-naphthalenedione] | 5 ppm < 10 min | Toxic at 1 ppm | – | Toxicity Data: toxic concentration [8]: Toxic at 5 ppm |
| O=C1c2ccccc2C(=O)c2ccccc21 [compound 11, anthraquinone] | 5 ppm < 4 hours | – | – | – |
| O=C1C=CC(=O)C=C1 [compound 12, 1,4-benzoquinone] | – | Toxic at 500 ppb | – | Toxicity Data: Control hatch at (concentration) [4]: at 1 ppm |
| CC1=CC(=O)C=CC1=O [compound 13, methyl-1,4-benzoquinone (toluquinone)] | – | Toxic at 500 ppb | – | – |
| COC1=C(OC)C(=O)C(C)=CC1=O [compound 14, 2,3-methoxy-5-methyl-1,4-benzoquinone] | – | Toxic at 5 ppm | – | Avoidance of treated leaves ([9]; after 48 hours): avoidance behavior was again observed; Avoidance of treated leaves ([9]; all treatments, 24 hours): significant avoidance relative to control; Feeding activity ([9]; several snails of the treatment group, leaves completely intact): no feeding activity at all |
